From US20130224236A1, “HSV-1 EPITOPES AND METHODS FOR USING SAME” (UNIVERSITY OF WASHINGTON, priority 2010, published 2013)

B1: UL53: HSV-1 protein UL53/Glycoprotein K (protein)
chain: MLAVRSLQHLSTVVLITAYGLVLVWYTVFGASPLHRCIYAVRPTGTNNDTALVWMKMNQTLLFLGAPTHPPNGGWRNHAHICYANLIAGRVVPFQVPPDAMNRRIMNVHEAVNCLETLWYTRVRLVVVGWFLYLAFVALHQRRCMFGVVSPAHKMVAPATYLLNYAGRIVSSVFLQYPYTKITRLLCELSVQRQNLVQLFETDPVTFLYHRPAIGVIVGCELMLRFVAVGLIVGTAFISRGACAITYPLFLTITTWCFVSTIGLTELYCILRRGPAPKNADKAAAPGRSKGLSGVCGRCCSIILSGIAVRLCYIAVVAGVVLVALHYEQEIQRRLFDV
modifications: human herpesvirus 1
notes: HSV-1 protein UL53/Glycoprotein K
B2: US1/1.5: HSV-1 protein US1/ICP22 (protein)
chain: MADISPGAFAPCVKARRPALRSPPLGTRKRKRPSRPLSSESEVESDTALESEVESETASDSTESGDQDEAPRIGGRRAPRRLGGRFFLDMSAESTTGTETDASVSDDPDDTSDWSYDDIPPRPKRARVNLRLTSSPDRRDGVIFPKMGRVRSTRETQPRAPTPSAPSPNAMLRRSVRQAQRRSSARWTPDLGYMRQCINQLFRVLRVARDPHGSANRLRHLIRDCYLMGYCRARLAPRTWCRLLQVSGGTWGMHLRNTIREVEARFDATAEPVCKLPCLETRRYGPECDLSNLEIHLSATSDDEISDATDLEAAGSDHTLASQSDTEDAPSPVTLETPEPRGSLAVRLEDEFGEFDWTPQEGSQPWLSAVVADTSSVERPGPSDSGAGRAAEDRKCLDGCRKMRFSTACPYPCSDTFLRP
modifications: human herpesvirus 1
notes: HSV-1 protein US1/ICP22
B3: UL13: HSV-1 protein UL13 (protein)
chain: MDESRRQRPAGHVAANLSPQGARQRSFKDWLASYVHSNPHGASGRPSGPSLQDAAVSRSSHGSRHRSGLRERLRAGLSRWRMSRSSHRRASPETPGTAAKLNRPPLRRSQAALTAPPSSPSHILTLTRIRKLCSPVFAINPALHYTTLEIPGARSFGGSGGYGDVQLIREHKLAVKTIKEKEWFAVELIATLLVGECVLRAGRTHNIRGFIAPLGFSLQQRQIVFPAYDMDLGKYIGQLASLRTTNPSVSTALHQCFTELARAVVFLNTTCGISHLDIKCANILVMLRSDAVSLRRAVLADFSLVTLNSNSTIARGQFCLQEPDLKSPRMFGMPTALTTANFHTLVGHGYNQPPELLVKYLNNERAEFTNHRLKHDVGLAVDLYALGQTLLELVVSVYVAPSLGVPVTRFPGYQYFNNQLSPDFALALLAYRCVLHPALFVNSAETNTHGLAYDVPEGIRRHLRNPKIRRAFTDRCINYQHTHKAILSSVALPPELKPLLVLVSRLCHTNPCARHALS
modifications: human herpesvirus 1
notes: HSV-1 protein UL13
B4: UL40: HSV-1 protein UL40 (protein)
chain: MDSAAPALSPALTALTDQSATADLAIQIPKCPDPERYFYTSQCPDINHLRSLSILNRWLETELVFVGDEEDVSKLSEGELSFYRFLFAFLSAADDLVTENLGGLSGLFEQKDILHYYVEQECIEVVHSRVYNIIQLVLFHNNDQARREYVAGTINHPAIRAKVDWLEARVRECASVPEKFILMILIEGIFFAASFAAIAYLRTNNLLRVTCQSNDLISRDEAVHTTASCYIYNNYLGGHAKPPPDRVYGLFRQAVEIEIGFIRSQAPTDSHILSPAALAAIENYVRFSADRLLGLIHMKPLFSAPPPDASFPLSLMSTDKHTNFFECRSTSYAGAVVNDL
modifications: human herpesvirus 1
notes: HSV-1 protein UL40
B5: UL21: HSV-1 protein UL21 (protein)
chain: MELSYATTMHYRDVVFYVTTDRNRAYFVCGGCVYSVGRPCASQPGEIAKFGLVVRGTGPDDRVVANYVRSELRQRGLQDVRPIGEDEVFLDSVCLLNPNVSSELDVINTNDVEVLDECLAEYCTSLRTSPGVLISGLRVRAQDRIIELFEHPTIVNVSSHFVYTPSPYVFALAQAHLPRLPSSLEALVSGLFDGIPAPRQPLDAHNPRTDVVITGRRAPRPIAGSGAGSGGAGAKRATVSEFVQVKHIDRVGPAGVSPAPPPNNTDSSSLVPGAQDSAPPGPTLRELWWVFYAADRALEEPRADSGLTREEVRAVRGFREQAWKLFGSAGAPRAFIGAALGLSPLQKLAVYYYIIHRERRLSPFPALVRLVGRYTQRHGLYVPRPDDPVLADAINGLFRDALAAGTTAEQLLMFDLLPPKDVPVGSDVQADSTALLRFIESQRLAVPGGVISPEHVAYLGAFLSVLYAGRGRMSAATHTARLTGVTSLVLAVGDVDRLSAFDRGAAGAASRTRAAGYLDVLLTVRLARSQHGQSV
modifications: human herpesvirus 1
notes: HSV-1 protein UL21
B6: UL39: HSV-1 UL39/ICP6/10, large subunit of ribonucleotide reductase (protein)
chain: MASRPAASSPVEARAPVGGQEAGGPSAATQGEAAGAPLAHGHHVYCQRVNGVMVLSDKTPGSASYRISDNNFVQCGSNCTMIIDGDVVRGRPQDPGAAASPAPFVAVTNIGAGSDGGTAVVAFGGTPRRSAGTSTGTQTADVPTEALGGPPPPPRFTLGGGCCSCRDTRRRSAVFGGEGDPVGPAEFVSDDRSSDSDSDDSEDTDSETLSHASSDVSGGATYDDALDSDSSSDDSLQIDGPVCRPWSNDTAPLDVCPGTPGPGADAGGPSAVDPHAPTPEAGAGLAADPAVARDDAEGLSDPRPRLGTGTAYPVPLELTPENAEAVARFLGDAVNREPALMLEYFCRCAREETKRVPPRTFGSPPRLTEDDFGLLNYALVEMQRLCLDVPPVPPNAYMPYYLREYVTRLVNGFKPLVSRSARLYRILGVLVHLRIRTREASFEEWLRSKEVALDFGLTERLREHEAQLVILAQALDHYDCLIHSTPHTLVERGLQSALKYEEFYLKRFGGHYMESVFQMYTRIAGFLACRATRGMRHIALGREGSWWEMFKFFFHRLYDHQIVPSTPAMLNLGTRNYYTSSCYLVNPQATTNKATLRAITSNVSAILARNGGIGLCVQAFNDSGPGTASVMPALKVLDSLVAAHNKESARPTGACVYLEPWHTDVRAVLRMKGVLAGEEAQRCDNIFSALWMPDLFFKRLIRHLDGEKNVTWTLFDRDTSMSLADFHGEEFEKLYQHLEVMGFGEQIPIQELAYGIVRSAATTGSPFVMFKDAVNRHYIYDTQGAAIAGSNLCTEIVHPASKRSSGVCNLGSVNLARCVSRQTFDFGRLRDAVQACVLMVNIMIDSTLQPTPQCTRGNDNLRSMGIGMQGLHTACLKLGLDLESAEFQDLNKHIAEVMLLSAMKTSNALCVRGARPFNHFKRSMYRAGRFHWERFPDARPRYEGEWEMLRQSMMKHGLRNSQFVALMPTAASAQISDVSEGFAPLFTNLFSKVTRDGETLRPNTLLLKELERTFSGKRLLEVMDSLDAKQWSVAQALPCLEPTHPLRRFKTAFDYDQKLLIDLCADRAPYVDHSQSMTLYVTEKADGTLPASTLVRLLVHAYKRGLKTGMYYCKVRKATNSGVFGGDDNIVCMSCAL
modifications: human herpesvirus 1
notes: HSV-1 UL39/ICP6/10, large subunit of ribonucleotide reductase

Columns and labels:
Type in all cases: cell-based, human
[1] = test system: bulk polyclonal CD8 effector cells; assay: ORFeome CD8 screen: IFN-γ ELISA after adding CD8 responders to Cos-7 aAPC co-transfected with HLA class I cDNA and HSV-1 ORF; conditions: for CD8 IFN-γ responses to HSV-1 polypeptide (ORF level): amongst the 7 participants, HLA A, B, C screens; for HLA A*0101-bearing donors with CD8 T cells recognizing the ORF: primary co-transfection screens with shared HLA cDNA; for number of distinct restricting HLA alleles: CD8 recognition; for number of persons with CD8 recognition of the ORF: of 7 persons; for number of HLA-level screens in which the ORF was recognized: of 39 screens; for CD8 reactivity restricted by HLA A*0101: participant 1
[2] = test system: Bulk-expanded HSV-1-reactive CD4 T-cell lines; assay: ORFeome CD4 screen: 3H thymidine proliferation to recombinant HSV-1 proteins; conditions: of 11 persons
[3] = test system: CD4+ clone 9447.28 specific for HSV-1 VP22 AA 199-211; assay: 3H thymidine proliferation check of expressed VP22 with a CD4 T-cell clone; conditions: pEXP203 in vitro expressed protein
Description: For expression, pEXP203 plasmids were prepared from a 3 ml ampicillin culture of transformed E. coli using a silica method (Qiagen) and mass determined by spectrophotometry. Protein expression used 50 μl volumes of the Expressionway E. coli system (Invitrogen). To check expression, 1 μl of reaction product was spotted onto nitrocellulose membranes (Whatman, Piscataway, N.J.), air-dried, blocked with 1% blocking reagent (Roche) diluted in TBS (50 mM Tris, 150 mM NaCl, pH 7.5), probed with anti-6-His mAb (Roche) diluted 1:500 in TBS-0.1% Tween −20 (TBS-T) (Roche), washed with TBS-T, incubated with horseradish peroxidase-conjugated anti-mouse IgG (Promega) diluted 1:2500 in TBS-T, washed with TBS-T, and developed with TMB substrate (Promega). Proteins failing to display a spot indicating anti-6-His binding were re-synthesized. For HSV-1 protein VP22 (gene UL49), expression was checked by triplicate, 3-day ^3H thymidine proliferation assay using cornea-derived CD4+ clone 9447.28 specific for HSV-1 VP22 AA 199-211 (18) as responders (2×10^4/well), autologous 3,300 rad γ-irradiated PBMC as APC (10^5/well), and HSV-1 VP22 or controls expressed in the pEXP203 system.
We expressed proteins covering the large majority of the HSV-1 proteome using an in vitro bacterial expression system.

Molecule	CD8 IFN-γ responses to HSV-1 polypeptide (ORF level) [1]	further results
RL2/ICP0: HSV-1 protein RL2/ICP0	elicit CD8 IFN-γ responses	CD8 IFN-γ responses to HSV-1 polypeptide (ORF level) ([1]; listed as ICP0): detected
RS1/ICP4: HSV-1 protein RS1/ICP4	elicit CD8 IFN-γ responses	CD8 IFN-γ responses to HSV-1 polypeptide (ORF level) ([1]; listed as ICP4): detected
UL1: HSV-1 protein UL1/Glycoprotein L	elicit CD8 IFN-γ responses	HLA A*0101-bearing donors with CD8 T cells recognizing the ORF [1]: each HLA A*0101-bearing donor
UL25: HSV-1 protein UL25	elicit CD8 IFN-γ responses	–
UL29: HSV-1 protein UL29/ICP8	elicit CD8 IFN-γ responses	–
UL31: HSV-1 protein UL31	elicit CD8 IFN-γ responses	–
UL37: HSV-1 protein UL37/ICP32	elicit CD8 IFN-γ responses	–
UL41: HSV-1 protein UL41/vhs	elicit CD8 IFN-γ responses	–
UL46: HSV-1 tegument protein VP11/12 encoded by gene UL46	elicit CD8 IFN-γ responses	number of distinct restricting HLA alleles [1]: 7; number of persons with CD8 recognition of the ORF [1]: 5; number of HLA-level screens in which the ORF was recognized [1]: 10; number of persons with CD4 recognition of the protein [2]: 11
UL47: HSV-1 protein UL47/VP13/14	elicit CD8 IFN-γ responses	–
UL48: HSV-1 protein UL48/VP16/ICP25	elicit CD8 IFN-γ responses	CD8 reactivity restricted by HLA A*0101 [1]: strong reactivity; HLA A*0101-bearing donors with CD8 T cells recognizing the ORF [1]: each HLA A*0101-bearing donor
UL49: HSV-1 protein UL49/VP22	elicit CD8 IFN-γ responses	responses of VP22-specific CD4 T-cell clone to expressed protein [3]: strong, specific responses
UL54: HSV-1 protein UL54 ICP27	elicit CD8 IFN-γ responses	–
US7: HSV-1 protein US7/Glycoprotein I	elicit CD8 IFN-γ responses	–
B1	elicit CD8 IFN-γ responses	–
B2	elicit CD8 IFN-γ responses	CD8 IFN-γ responses to HSV-1 polypeptide (ORF level) ([1]; listed as ICP22): detected
B3	elicit CD8 IFN-γ responses	–
B4	elicit CD8 IFN-γ responses	–
B5	elicit CD8 IFN-γ responses	–
B6	elicit CD8 IFN-γ responses	number of distinct restricting HLA alleles [1]: 7; number of persons with CD8 recognition of the ORF [1]: 6; number of HLA-level screens in which the ORF was recognized [1]: 11; CD8 reactivity restricted by HLA A*0101 [1]: strong reactivity
